We go through 12 compounds from patent US5326751A, “Enkephalin analogs” (Arizona Board of Regents on behalf of the University of …, priority 1992, dated 1994).

Bridge positions count the residues as written; N and C are the ends. Square brackets hold non-standard residues; d marks the D form. Peptide text beside a SMILES is read from it. Phe(4-NO2) = N[C@@H](Cc1ccc([N+](=O)[O-])cc1)C(=O)O; Phe(4-Br) = N[C@@H](Cc1ccc(Br)cc1)C(=O)O; Phe(4-Cl) = N[C@@H](Cc1ccc(Cl)cc1)C(=O)O; Phe(4-F) = N[C@@H](Cc1ccc(F)cc1)C(=O)O; Phe(4-I) = N[C@@H](Cc1ccc(I)cc1)C(=O)O; dPen = CC(C)(S)[C@@H](N)C(=O)O; dAbu = CC[C@@H](N)C(=O)O; Ac5c = NC1(C(=O)O)CCCC1; Abu = CC[C@H](N)C(=O)O

The target in experiment [1] is guinea pig ileum (GPI), primarily mu-type opiate receptors (Cavia porcellus, UniProt P97266). Put plainly: guinea pig ileum (GPI) assay: inhibition of electrically induced muscle contractions. Format: cell-based. The arrangement: inh in GPI: dose or concentration left out as unconfirmed. The note with it: for IC50: guinea pig ileum, electrically stimulated contractions, read-out: IC50 (nM) ± S.E.E. GPI. As to the method:
The guinea pig ileum longitudinal muscle-myenteric plexus preparation was prepared following the method of Kosterlitz, et al. Brit. J. Pharmacol., 39, 398-413 (1970). Agonists were added to the tissue bath and remained in contact with the tissue for a maximum of three minutes.

For experiment [2], the target named is T1, mouse vas deferens (MVD), primarily delta-type opiate receptors (Mus musculus, UniProt P32300).
T1 construct: from tissue; host or cells: mouse vas deferens
T1 sequence (P32300 whole entry): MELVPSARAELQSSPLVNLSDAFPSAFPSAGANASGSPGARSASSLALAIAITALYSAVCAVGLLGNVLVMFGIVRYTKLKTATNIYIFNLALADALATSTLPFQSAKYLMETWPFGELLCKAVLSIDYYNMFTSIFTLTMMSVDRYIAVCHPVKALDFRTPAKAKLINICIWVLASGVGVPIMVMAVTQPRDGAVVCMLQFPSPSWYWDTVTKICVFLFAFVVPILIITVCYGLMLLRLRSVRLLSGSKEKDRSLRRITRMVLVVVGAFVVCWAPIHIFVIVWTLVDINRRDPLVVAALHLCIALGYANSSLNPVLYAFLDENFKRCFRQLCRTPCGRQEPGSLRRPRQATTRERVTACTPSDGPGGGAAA
Put plainly: mouse vas deferens (MVD) assay: inhibition of electrically induced muscle contractions. Format: cell-based. The note with it: for IC50: mouse vas deferens, electrically stimulated contractions, read-out: IC50 (nM) ± S.E.E. MVD. The procedure:
The MVD preparation contains primarily delta-type opiate receptors, with some kappa and mu receptors.
The mouse vas deferens was prepared following the method of Hughes, et al. cites Brit. J. Pharmacol., 53, 371-381 (1975). One pair of vasa deferentia was used in each experiment.

The next experiment deals with T2, mu-type opioid receptors (Rattus norvegicus, UniProt P33535).
T2 construct: Whole brains with cerebellum removed were homogenized in 100 volumes of Tris-HCl buffer; from tissue; host or cells: rat brain (without cerebellum), washed homogenate
T2 sequence (P33535 whole entry): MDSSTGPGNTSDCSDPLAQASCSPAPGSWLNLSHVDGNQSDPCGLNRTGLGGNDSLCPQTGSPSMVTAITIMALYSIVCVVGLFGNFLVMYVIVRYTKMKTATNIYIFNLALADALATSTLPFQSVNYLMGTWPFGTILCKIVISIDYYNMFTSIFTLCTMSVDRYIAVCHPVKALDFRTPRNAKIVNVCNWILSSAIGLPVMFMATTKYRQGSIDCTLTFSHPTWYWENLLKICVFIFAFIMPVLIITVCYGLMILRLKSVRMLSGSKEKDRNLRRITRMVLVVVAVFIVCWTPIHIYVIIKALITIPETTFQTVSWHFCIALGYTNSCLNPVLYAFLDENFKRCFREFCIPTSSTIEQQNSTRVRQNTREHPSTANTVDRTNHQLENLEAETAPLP
Put plainly: displacement of [3H]CTOP in rat brain homogenate. Format: binding. Conditions: 25° C., read-out: IC50 (nM) ± S.E.E. [3H] CTOP. The procedure: (§1) The binding potencies of each compound for mu and delta receptors in rat brain extracts was determined by competition assays against radiolabelled compounds known to bind opioid receptors. […] The ability of a tested compound to displace tritiated ligands from their respective receptor molecules is a measure of the compound's binding potency for the receptor of the displaced ligand.
(§2) Brains from male Sprague-Dawley rats were rapidly removed following sacrifice. Whole brains with cerebellum removed were homogenized in 100 volumes of Tris-HCl buffer (pH 7.4 at 25°). Tissue homogenates were washed twice in the same buffer by centrifugation at 48,000 g for 10 min. Pellets were resuspended in the same buffer.
(§3) Filter-bound radioactivity was quantitated by liquid scintillation spectrophotometry with an efficiency of 46%. Radio-ligand displaced by 1 μM natrexone hydrochloride was defined as specific tissue binding.
On the technique in general: Displacement assays read how much labelled ligand stays bound in the presence of the test substance.

The target in experiment [3] is T3, delta-type opioid receptors (Rattus norvegicus, UniProt P33533).
T3 construct: Whole brains with cerebellum removed were homogenized in 100 volumes of Tris-HCl buffer; from tissue; host or cells: rat brain (without cerebellum), washed homogenate
T3 sequence (P33533 whole entry): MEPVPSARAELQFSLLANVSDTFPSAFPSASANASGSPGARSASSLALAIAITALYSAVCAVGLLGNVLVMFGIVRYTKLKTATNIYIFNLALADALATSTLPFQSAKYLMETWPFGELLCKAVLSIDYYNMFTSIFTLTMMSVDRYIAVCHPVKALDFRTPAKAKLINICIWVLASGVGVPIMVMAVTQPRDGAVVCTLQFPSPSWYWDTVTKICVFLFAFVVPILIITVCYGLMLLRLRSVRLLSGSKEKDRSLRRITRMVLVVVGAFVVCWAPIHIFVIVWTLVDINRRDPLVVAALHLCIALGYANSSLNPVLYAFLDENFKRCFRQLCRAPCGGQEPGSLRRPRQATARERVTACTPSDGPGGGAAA
Put plainly: displacement of [3H][p-Cl-Phe4]DPDPE in rat brain homogenate. Conditions: for IC50: rat brain homogenate, 1 nM radioligand, 25° C., 40 min, read-out: IC50 (nM) ± S.E.E. [3H] p-Cl-DPDPE. The format is binding. As to the method:
as §1, §2
Total incubation volume was 2 ml. After 40 min., the mixture was rapidly filtered through Whatman GF/B glass fiber filters and washed 3 times with 5 ml of ice-cold buffer.
as §3

guinea pig ileum (GPI), primarily mu-type opiate receptors, sequence (P97266 whole entry, looked up): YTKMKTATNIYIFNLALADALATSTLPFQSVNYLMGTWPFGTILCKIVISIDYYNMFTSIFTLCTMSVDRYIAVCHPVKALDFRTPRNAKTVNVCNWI

As to `C[C@@H]1NC(=O)[C@H](NC(=O)[C@@H](N)Cc2ccc(O)cc2)C(C)(C)SSC(C)(C)[C@H](C(=O)O)NC(=O)[C@H](Cc2ccc([N+](=O)[O-])cc2)NC1=O` [[p-NO2 --Phe^4 ]DPADPE] (H-Y[dPen]A[Phe(4-NO2)][dPen]-OH; disulfide 2-5), the IC50 in experiment [1] came to 13500 ± 1210 nM; in experiment [2], 3.74 ± 0.356 nM; on mu-type opioid receptors it was 712 ± 3 nM; in experiment [3], 3.5 ± 0.25 nM.
The like results for `CC1(C)SSC(C)(C)[C@@H](NC(=O)[C@@H](N)Cc2ccc(O)cc2)C(=O)N[C@@H](CO)C(=O)N[C@@H](Cc2ccccc2)C(=O)N[C@H]1C(=O)O` [[L--Ser^3]DPDPE] (H-Y[dPen]SF[dPen]-OH; disulfide 2-5) were, in that order, 39400 ± 7160 nM, 252 ± 32.5 nM, more than 22500 nM and 42 ± 3 nM.
As for `C[C@@H]1NC(=O)[C@H](NC(=O)[C@@H](N)Cc2ccc(O)cc2)C(C)(C)SSC(C)(C)[C@H](C(=O)O)NC(=O)[C@H](Cc2ccc(I)cc2)NC1=O` [[p-I--Phe^4 ]DPADPE] (H-Y[dPen]A[Phe(4-I)][dPen]-OH; disulfide 2-5), the IC50 came out at 30800 ± 1550 nM in experiment [1], 11 ± 1.23 nM in experiment [2], 3670 ± 396 nM on mu-type opioid receptors and 12.5 ± 0.5 nM in experiment [3].
For `C[C@@H]1NC(=O)[C@H](NC(=O)[C@@H](N)Cc2ccc(O)cc2)C(C)(C)SSC(C)(C)[C@H](C(=O)O)NC(=O)[C@H](Cc2ccc(Cl)cc2)NC1=O` [[p-Cl--Phe^4 ]DPADPE] (H-Y[dPen]A[Phe(4-Cl)][dPen]-OH; disulfide 2-5), the IC50 in experiment [1] worked out at 25500 ± 10300 nM; in experiment [2] it was 1.94 ± 0.295 nM; at mu-type opioid receptors, 1120 ± 260 nM; in experiment [3], 3.7 ± 0.9 nM.
As for `CC[C@H]1NC(=O)[C@H](NC(=O)[C@@H](N)Cc2ccc(O)cc2)C(C)(C)SSC(C)(C)[C@H](C(=O)O)NC(=O)[C@H](Cc2ccccc2)NC1=O` [[D--Abu^3]DPDPE] (H-Y[dPen][dAbu]F[dPen]-OH; disulfide 2-5), the concentration for half-maximal inhibition (IC50) in experiment [1] was 29900 ± 2670 nM; in experiment [2], 1950 ± 204 nM; on mu-type opioid receptors, more than 50000 nM; in experiment [3], 3380 ± 1070 nM.
Regarding `C[C@H]1NC(=O)[C@H](NC(=O)[C@@H](N)Cc2ccc(O)cc2)C(C)(C)SSC(C)(C)[C@H](C(=O)O)NC(=O)[C@H](Cc2ccccc2)NC1=O` [[D--Ala^3]DPDPE] (H-Y[dPen][dA]F[dPen]-OH; disulfide 2-5), the IC50 was 33300 ± 817 nM in experiment [1], 572 ± 131 nM in experiment [2], more than 35000 nM on mu-type opioid receptors and 535 ± 58 nM in experiment [3].
Take `C[C@@H]1NC(=O)[C@H](NC(=O)[C@@H](N)Cc2ccc(O)cc2)C(C)(C)SSC(C)(C)[C@H](C(=O)O)NC(=O)[C@H](Cc2ccc(F)cc2)NC1=O` [[p-F--Phe^4 ]DPADPE] (H-Y[dPen]A[Phe(4-F)][dPen]-OH; disulfide 2-5): the IC50 in experiment [1] was 4600 ± 1010 nM; in experiment [2] it was 3.61 ± 0.367 nM; at mu-type opioid receptors it was 1460 ± 253 nM; in experiment [3] it was 0.55 ± 0.14 nM.
Take `CC1(C)SSC(C)(C)[C@@H](NC(=O)[C@@H](N)Cc2ccc(O)cc2)C(=O)N[C@H](CO)C(=O)N[C@@H](Cc2ccccc2)C(=O)N[C@H]1C(=O)O` [[D--Ser^3]DPDPE] (H-Y[dPen][dS]F[dPen]-OH; disulfide 2-5): the “inh in GPI” value in experiment [1] stood at 3 % inh. The results for the IC50 (in experiment [2]; at mu-type opioid receptors; in experiment [3]) were 1280 ± 245 nM, more than 50000 nM and 764 ± 106 nM, respectively.
As for `CC[C@@H]1NC(=O)[C@H](NC(=O)[C@@H](N)Cc2ccc(O)cc2)C(C)(C)SSC(C)(C)[C@H](C(=O)O)NC(=O)[C@H](Cc2ccccc2)NC1=O` [[L--Abu^3]DPDPE] (H-Y[dPen][Abu]F[dPen]-OH; disulfide 2-5), the IC50 in experiment [1] was 4870 ± 345 nM; in experiment [2], 84.9 ± 12.5 nM; on mu-type opioid receptors it was 12000 ± 938 nM; in experiment [3] it was 66.3 ± 30.4 nM.
With `CC1(C)SSC(C)(C)[C@@H](NC(=O)[C@@H](N)Cc2ccc(O)cc2)C(=O)NC2(CCCC2)C(=O)N[C@@H](Cc2ccccc2)C(=O)N[C@H]1C(=O)O` [[AC5 C^3]DPDPE] (H-Y[dPen][Ac5c]F[dPen]-OH; disulfide 2-5), the half-maximal inhibitory concentration (IC50) in experiment [1] was determined as 857 ± 31.7 nM; in experiment [2], 370 ± 162 nM; on mu-type opioid receptors, 1760 ± 45 nM; in experiment [3], 312 ± 39 nM.
Regarding `C[C@@H]1NC(=O)[C@H](NC(=O)[C@@H](N)Cc2ccc(O)cc2)C(C)(C)SSC(C)(C)[C@H](C(=O)O)NC(=O)[C@H](Cc2ccccc2)NC1=O` [[L--Ala^3 ]DPDPE (DPADPE), L-Tyrosyl-D-penicillaminyl-L--alanyl-L-phenylalanyl-D-penicillaminyl cyclic (2-5) disulfide] (H-Y[dPen]AF[dPen]-OH; disulfide 2-5), the IC50 was 121000 ± 81400 nM in experiment [1], 11.8 ± 1.62 nM in experiment [2], 11000 ± 13 nM on mu-type opioid receptors and 18.4 ± 0.43 nM in experiment [3]. Moreover, the “RATIO (μ/δ), Table 1” value in experiment [2] (GPI IC50 / MVD IC50) was 10,315. Also, the “RATIO (μ/δ), Table 2” value in experiment [3] ([3H]CTOP IC50 / [3H]p-Cl-DPDPE IC50, rat brain) turned out to be 598.
Take `C[C@@H]1NC(=O)[C@H](NC(=O)[C@@H](N)Cc2ccc(O)cc2)C(C)(C)SSC(C)(C)[C@H](C(=O)O)NC(=O)[C@H](Cc2ccc(Br)cc2)NC1=O` [[p-Br--Phe^4 ]DPADPE] (H-Y[dPen]A[Phe(4-Br)][dPen]-OH; disulfide 2-5): the IC50 was determined as 40800 ± 2950 nM in experiment [1], 2.95 ± 0.686 nM in experiment [2], 2710 ± 453 nM at mu-type opioid receptors and 5.3 ± 0.86 nM in experiment [3].

As usually defined, the IC50 is the concentration that inhibits the measured activity by half.
